From patent US12364702B2, “Highly active sting protein agonist compound” (ADLAI NORTYE BIOPHARMA CO., LTD., priority 2018, dated 2025)

What was measured:
Assay type in all cases: cell-based
[1] = biological target: STING (Homo sapiens, UniProt Q86WV6); assay: IFN-β secretion from THP1 by STING activation (hIFNβ ELISA); settings: THP1 cells, 24 h incubation, IFN-β in supernatant, top dose set according to solubility; for EC50: read-out: hIFNβ ELISA (EC50)
Protocol: In this assay, activation of STING by compounds was evaluated by detecting their ability to stimulate the secretion of IFN-β (interferon-beta) from THP1. THP1 was purchased from National Collection of Authenticated Cell Cultures (Cat #TCHu 57). The top dose of compounds was setted according to their solubility. First, Compounds were 3 times diluted with medium, 8-dose points in total. The final DMSO concentration was 0.2%. THP1 during the logarithmic phase was resuspended to 2×10^6 cells/ml in assay medium. The THP1-cell suspension was dispensed into a 96-well U bottom plate containing 50 ul of compound diluted in medium. After 24 h incubation at 37° C., 5% CO2, the supernatant was collected. The concentration of IFN-β in the supernatant was measured using a human IFNβ ELISA KIT (R&D, DY814-05). The data was fitted with GraphPad Prism or XLfit to calculate EC50 values.

[2] = biological target: T1, STING WT variant (Homo sapiens, UniProt Q86WV6); assay: SEAP reporter assay in HEK-Blue ISG KO-STING cells transfected with STING WT variant (Method 1); settings: 1 ng STING vector, compound 2.5 uM, 24 h, SEAP signal vs 0.5% DMSO
T1 construct: host or cells: HEK-Blue ISG KO-STING cells (Invivogen, hkb-kostg)
Description: (§1) Activation of STING can be determined using a SEAP reporter assay in HEK-Blue™ ISG KO-STING cells (Invivogen, cat #hkb-kostg) transfected with plasmids expressing STING variants (WT & HAQ) (referred to WO2017/175147A1). STING variants (WT & HAQ) vector were constructed based on STING-232H vector (Origene, RC208418). GFP vector (VT2069) was bought from Youbio. The detailed protocol as follows: HEK-Blue™ ISG KO-STING cells were harvest and seeding into 96 well plate, the final cell number was 0.8×10^5 cells/well. Transfections were prepared using Lipofectamine 2000 (Invitrogen, Cat #11668-027) following the manufacturer's instructions (Lipo2000/DNA=1/10), 20 ul of transfection suspension containing 1 ng STING vector was added to cell culture plate and incubated at 37° C., 5% CO2 for 24 hours. After 24 hours' incubation, compounds were added at proper concentration, and the final DMSO concentration was 0.5%. After 24 h incubation, the supernatant was collected to detect SEAP signal using Great EscAPe SEAP chemiluminescence KIT (Clontech, cat #631738) and cells were collected to detect cell viability using CellTiter-Glo Luminescent Cell Viability Assay (Promega, cat #G7573) following the manufacturer's instructions. The data were described by the ratio of the stimulating signal of compounds to 0.5% DMSO.

[3] = biological target: T2, STING HAQ variant (Homo sapiens, UniProt Q86WV6, G230A/R293Q/R71H); assay: SEAP reporter assay in HEK-Blue ISG KO-STING cells transfected with STING HAQ variant (Method 1); settings: 1 ng STING vector, compound 5 uM, 24 h, SEAP signal vs 0.5% DMSO
T2 construct: host or cells: HEK-Blue ISG KO-STING cells (Invivogen, hkb-kostg)
T2 sequence (Q86WV6 whole entry R71H/G230A/R293Q): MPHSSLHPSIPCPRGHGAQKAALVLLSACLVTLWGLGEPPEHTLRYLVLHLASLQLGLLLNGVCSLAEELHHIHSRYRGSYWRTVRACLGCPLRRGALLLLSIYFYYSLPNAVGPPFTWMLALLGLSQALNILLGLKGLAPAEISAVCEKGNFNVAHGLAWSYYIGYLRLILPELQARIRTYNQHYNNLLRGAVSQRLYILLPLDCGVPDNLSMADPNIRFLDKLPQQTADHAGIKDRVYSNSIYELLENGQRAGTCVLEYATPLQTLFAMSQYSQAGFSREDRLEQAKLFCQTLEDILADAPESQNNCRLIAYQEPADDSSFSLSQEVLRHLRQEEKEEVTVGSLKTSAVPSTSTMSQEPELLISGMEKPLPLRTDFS
Description: as §1

STING, sequence (Q86WV6 whole entry): as the sequence (Q86WV6 whole entry R71H/G230A/R293Q) above, with H71R, A230G, Q293R counted along it

## CCn1nc(C)cc1C(=O)Nc1nc2cc(C(N)=O)cc(OCCCCNC)c2n1CCC[C@H]1COc2cc(C(N)=O)cc3nc(NC(=O)c4cc(C)nn4CC)n1c23 [Example 23, (S)-3-(3-(5-carbamoyl-2-(1-ethyl-3-methyl-1H-pyrazole-5-carboxamido)-7-(4-(methylamino)butoxy)-1H-benzo[d]imidazol-1-yl)propyl)-2-(1-ethyl-3-methyl-1H-pyrazole-5-carboxamido)-3,4-dihydro-5-oxa-1,2a-diazaacenaphthylene-7-carboxamide]
[1]
  EC50: 1.1 µM
[2]
  Fold change related to DMSO control WT: 2.82
[3]
  Fold change related to DMSO control HAQ: 38.85

## CCn1nc(C)cc1C(=O)Nc1nc2cc(C(N)=O)cc(OCCCN3CCOCC3)c2n1CCC[C@H]1COc2cc(C(N)=O)cc3nc(NC(=O)c4cc(C)nn4CC)n1c23 [Example 24, (S)-3-(3-(5-carbamoyl-2-(1-ethyl-3-methyl-1H-pyrazole-5-carboxamido)-7-(3-morpholinopropoxy)-1H-benzo[d]imidazol-1-yl)propyl)-2-(1-ethyl-3-methyl-1H-pyrazole-5-carboxamido)-3,4-dihydro-5-oxa-1,2a-diazaacenaphthylene-7-carboxamide]
[1]
  EC50: 1.1 µM
[2]
  Fold change related to DMSO control WT: 2.70
[3]
  Fold change related to DMSO control HAQ: 56.42

## CCn1nc(C)cc1C(=O)Nc1nc2cc(C(N)=O)cc(OCCOCCOC)c2n1CCC[C@H]1COc2cc(C(N)=O)cc3nc(NC(=O)c4cc(C)nn4CC)n1c23 [Example 25, (S)-3-(3-(5-carbamoyl-2-(1-ethyl-3-methyl-1H-pyrazole-5-carboxamido)-7-(2-(2-methoxyethoxy)ethoxy)-1H-benzo[d]imidazol-1-yl)propyl)-2-(1-ethyl-3-methyl-1H-pyrazole-5-carboxamido)-3,4-dihydro-5-oxa-1,2a-diazaacenaphthylene-7-carboxamide]
[1]
  EC50: 0.7 µM
[2]
  Fold change related to DMSO control WT: 1.95
[3]
  Fold change related to DMSO control HAQ: 46.51

## CCn1nc(C)cc1C(=O)Nc1nc2cc(C(N)=O)cc(OCCCN(C)C(C)=O)c2n1CCC[C@H]1COc2cc(C(N)=O)cc3nc(NC(=O)c4cc(C)nn4CC)n1c23 [Example 27, (S)-3-(3-(5-carbamoyl-2-(1-ethyl-3-methyl-1H-pyrazole-5-carboxamido)-7-(3-(N-methylacetamido)propoxy)-1H-benzo[d]imidazol-1-yl)propyl)-2-(1-ethyl-3-methyl-1H-pyrazole-5-carboxamido)-3,4-dihydro-5-oxa-1,2a-diazaacenaphthylene-7-carboxamide]
[1]
  EC50: 3.9 µM
[2]
  Fold change related to DMSO control WT: 2.22
[3]
  Fold change related to DMSO control HAQ: 45.86

## CCn1nc(C)cc1C(=O)Nc1nc2cc(C(N)=O)cc(OCCCN(C)C(=O)CN3CCOCC3)c2n1CCC[C@H]1COc2cc(C(N)=O)cc3nc(NC(=O)c4cc(C)nn4CC)n1c23 [Example 29, (S)-3-(3-(5-carbamoyl-2-(1-ethyl-3-methyl-1H-pyrazole-5-carboxamido)-7-(3-(N-methyl-2-morpholinoacetamido)propoxy)-1H-benzo[d]imidazol-1-yl)propyl)-2-(1-ethyl-3-methyl-1H-pyrazole-5-carboxamido)-3,4-dihydro-5-oxa-1,2a-diazaacenaphthylene-7-carboxamide]
[1]
  EC50: 6.7 µM
[2]
  Fold change related to DMSO control WT: 1.99
[3]
  Fold change related to DMSO control HAQ: 27.10

## CCn1nc(C)cc1C(=O)Nc1nc2cc(C(N)=O)cc(OCCCNS(C)(=O)=O)c2n1CCC[C@H]1COc2cc(C(N)=O)cc3nc(NC(=O)c4cc(C)nn4CC)n1c23 [Example 30, (S)-3-(3-(5-carbamoyl-2-(1-ethyl-3-methyl-1H-pyrazole-5-carboxamido)-7-(3-(methylsulfonamido)propoxy)-1H-benzo[d]imidazol-1-yl)propyl)-2-(1-ethyl-3-methyl-1H-pyrazole-5-carboxamido)-3,4-dihydro-5-oxa-1,2a-diazaacenaphthylene-7-carboxamide]
[1]
  EC50: > 13 µM
[2]
  Fold change related to DMSO control WT: 1.96
[3]
  Fold change related to DMSO control HAQ: 33.34

## CCn1nc(C)cc1C(=O)Nc1nc2cc(C(N)=O)cc(OCCCNC(=O)C[C@H]3COCCN3)c2n1CCC[C@H]1COc2cc(C(N)=O)cc3nc(NC(=O)c4cc(C)nn4CC)n1c23 [Example 33]
[1]
  EC50: 12 µM
[2]
  Fold change related to DMSO control WT: 1.88
[3]
  Fold change related to DMSO control HAQ: 16.31

## CCn1nc(C)cc1C(=O)Nc1nc2cc(C(N)=O)cc(OCCCNC(=O)CN3CCNCC3)c2n1CCC[C@H]1COc2cc(C(N)=O)cc3nc(NC(=O)c4cc(C)nn4CC)n1c23 [Example 34, (S)-3-(3-(6-carbamoyl-2-(1-ethyl-3-methyl-1H-pyrazole-5-carboxamido)-4-(3-(2-(piperazin-1-yl)acetamido)propoxy)-1H-benzo[d]imidazol-1-yl)propyl)-2-(1-ethyl-3-methyl-1H-pyrazole-5-carboxamido)-3,4-dihydro-5-oxa-1,2a-diazaacenaphthylene-7-carboxamide]
[1]
  EC50: 9.1 µM
[2]
  Fold change related to DMSO control WT: 1.51
[3]
  Fold change related to DMSO control HAQ: 6.51

## CCn1nc(C)cc1C(=O)Nc1nc2cc(C(N)=O)cc(OCCCS(C)(=O)=O)c2n1CCC[C@H]1COc2cc(C(N)=O)cc3nc(NC(=O)c4cc(C)nn4CC)n1c23 [Example 37, (S)-3-(3-(5-carbamoyl-2-(1-ethyl-3-methyl-1H-pyrazole-5-carboxamido)-7-(3-(methylsulfonyl)propoxy)-1H-benzo[d]imidazol-1-yl)propyl)-2-(1-ethyl-3-methyl-1H-pyrazole-5-carboxamido)-3,4-dihydro-5-oxa-1,2a-diazaacenaphthylene-7-carboxamide]
[1]
  hIFNβ ELISA (EC50, μM): inactive
[2]
  Fold change related to DMSO control WT: 2.14
[3]
  Fold change related to DMSO control HAQ: 23.71

## CCn1nc(C)cc1C(=O)Nc1nc2cc(C(N)=O)cc(OCC[C@@H](O)CO)c2n1CCC[C@H]1COc2cc(C(N)=O)cc3nc(NC(=O)c4cc(C)nn4CC)n1c23 [Example 38, (S)-3-(3-(5-carbamoyl-7-((R)-3,4-dihydroxybutoxy)-2-(1-ethyl-3-methyl-1H-pyrazole-5-carboxamido)-1H-benzo[d]imidazol-1-yl)propyl)-2-(1-ethyl-3-methyl-1H-pyrazole-5-carboxamido)-3,4-dihydro-5-oxa-1,2a-diazaacenaphthylene-7-carboxamide]
[1]
  hIFNβ ELISA (EC50, μM): inactive
[2]
  Fold change related to DMSO control WT: 2.15
[3]
  Fold change related to DMSO control HAQ: 18.05
